Test results published in the NIST ThermoML archive (doi:10.1021/je060271a).
± gives the expanded uncertainty stated by the source.

Details: 303.15 K, Liquid, Vibrating tube method

CCCCC(=O)OCC(COC(=O)CCCC)(COC(=O)CCCC)COC(=O)CCCC [pentaerythritol tetrapentanoate]
mass density (13763 kPa): 1019.6 ± 1.2 kg/m3 | mass density (13796 kPa): 1019.5 ± 1.2 kg/m3 | mass density (13829 kPa): 1019.6 ± 1.2 kg/m3 | mass density (13863 kPa): 1019.6 ± 1.2 kg/m3 | mass density (13902 kPa): 1019.7 ± 1.2 kg/m3 | mass density (13936 kPa): 1019.7 ± 1.2 kg/m3 | mass density (13971 kPa): 1019.7 ± 1.2 kg/m3 | mass density (14011 kPa): 1019.6 ± 1.2 kg/m3 | mass density (14045 kPa): 1019.6 ± 1.2 kg/m3 | mass density (14080 kPa): 1019.8 ± 1.2 kg/m3 | mass density (14120 kPa): 1019.8 ± 1.2 kg/m3 | mass density (14154 kPa): 1019.7 ± 1.2 kg/m3 | mass density (14189 kPa): 1019.8 ± 1.2 kg/m3 | mass density (14231 kPa): 1019.8 ± 1.2 kg/m3 | mass density (14265 kPa): 1019.9 ± 1.2 kg/m3 | mass density (14300 kPa): 1019.8 ± 1.2 kg/m3 | mass density (14344 kPa): 1019.8 ± 1.2 kg/m3 | mass density (14378 kPa): 1020 ± 1.2 kg/m3 | mass density (14414 kPa): 1019.9 ± 1.2 kg/m3 | mass density (14458 kPa): 1019.9 ± 1.2 kg/m3 | mass density (14494 kPa): 1020 ± 1.2 kg/m3 | mass density (14532 kPa): 1020 ± 1.2 kg/m3 | mass density (14574 kPa): 1020.1 ± 1.2 kg/m3 | mass density (14612 kPa): 1020.1 ± 1.2 kg/m3 | mass density (14649 kPa): 1020.1 ± 1.2 kg/m3 | mass density (14687 kPa): 1019.9 ± 1.2 kg/m3 | mass density (14731 kPa): 1020.2 ± 1.2 kg/m3 | mass density (14769 kPa): 1020.1 ± 1.2 kg/m3 | mass density (14808 kPa): 1020.2 ± 1.2 kg/m3 | mass density (14853 kPa): 1020.2 ± 1.2 kg/m3 | mass density (14892 kPa): 1020.2 ± 1.2 kg/m3 | mass density (14933 kPa): 1020.3 ± 1.2 kg/m3 | mass density (14974 kPa): 1020.3 ± 1.2 kg/m3 | mass density (15014 kPa): 1020.2 ± 1.2 kg/m3 | mass density (15058 kPa): 1020.3 ± 1.2 kg/m3 | mass density (15098 kPa): 1020.3 ± 1.2 kg/m3 | mass density (15146 kPa): 1020.4 ± 1.2 kg/m3 | mass density (15187 kPa): 1020.4 ± 1.2 kg/m3 | mass density (15226 kPa): 1020.4 ± 1.2 kg/m3 | mass density (15275 kPa): 1020.5 ± 1.2 kg/m3 | mass density (15316 kPa): 1020.3 ± 1.2 kg/m3 | mass density (15358 kPa): 1020.6 ± 1.2 kg/m3 | mass density (15400 kPa): 1020.5 ± 1.2 kg/m3 | mass density (15450 kPa): 1020.5 ± 1.2 kg/m3 | mass density (15495 kPa): 1020.6 ± 1.2 kg/m3 | mass density (15540 kPa): 1020.6 ± 1.2 kg/m3 | mass density (15586 kPa): 1020.7 ± 1.2 kg/m3 | mass density (15638 kPa): 1020.7 ± 1.2 kg/m3 | mass density (15671 kPa): 1020.6 ± 1.2 kg/m3 | mass density (15699 kPa): 1020.6 ± 1.2 kg/m3 | mass density (15733 kPa): 1020.9 ± 1.2 kg/m3 | mass density (15763 kPa): 1020.8 ± 1.2 kg/m3 | mass density (15791 kPa): 1020.7 ± 1.2 kg/m3 | mass density (15826 kPa): 1020.8 ± 1.2 kg/m3 | mass density (15856 kPa): 1020.8 ± 1.2 kg/m3 | mass density (15887 kPa): 1020.7 ± 1.2 kg/m3 | mass density (15921 kPa): 1020.8 ± 1.2 kg/m3 | mass density (15952 kPa): 1020.9 ± 1.2 kg/m3 | mass density (15981 kPa): 1021 ± 1.2 kg/m3 | mass density (16011 kPa): 1020.9 ± 1.2 kg/m3 | mass density (16047 kPa): 1020.9 ± 1.2 kg/m3 | mass density (16078 kPa): 1021.1 ± 1.2 kg/m3 | mass density (16109 kPa): 1021 ± 1.2 kg/m3 | mass density (16146 kPa): 1020.9 ± 1.2 kg/m3 | mass density (16177 kPa): 1021 ± 1.2 kg/m3 | mass density (16215 kPa): 1021 ± 1.2 kg/m3 | mass density (16248 kPa): 1021.1 ± 1.2 kg/m3 | mass density (16278 kPa): 1021 ± 1.2 kg/m3 | mass density (16303 kPa): 1021.1 ± 1.2 kg/m3 | mass density (16331 kPa): 1021.1 ± 1.2 kg/m3 | mass density (16354 kPa): 1021.1 ± 1.2 kg/m3 | mass density (16378 kPa): 1021 ± 1.2 kg/m3 | mass density (16406 kPa): 1021.2 ± 1.2 kg/m3 | mass density (16430 kPa): 1021 ± 1.2 kg/m3 | mass density (16454 kPa): 1021.3 ± 1.2 kg/m3 | mass density (16479 kPa): 1021.2 ± 1.2 kg/m3 | mass density (16508 kPa): 1021.2 ± 1.2 kg/m3 | mass density (16532 kPa): 1021.2 ± 1.2 kg/m3 | mass density (16556 kPa): 1021.2 ± 1.2 kg/m3 | mass density (16585 kPa): 1021.3 ± 1.2 kg/m3 | mass density (16610 kPa): 1021.3 ± 1.2 kg/m3 | mass density (16633 kPa): 1021.2 ± 1.2 kg/m3 | mass density (16663 kPa): 1021.4 ± 1.2 kg/m3 | mass density (16688 kPa): 1021.3 ± 1.2 kg/m3 | mass density (16712 kPa): 1021.3 ± 1.2 kg/m3 | mass density (16737 kPa): 1021.4 ± 1.2 kg/m3 | mass density (16765 kPa): 1021.3 ± 1.2 kg/m3 | mass density (16791 kPa): 1021.4 ± 1.2 kg/m3 | mass density (16815 kPa): 1021.3 ± 1.2 kg/m3 | mass density (16845 kPa): 1021.5 ± 1.2 kg/m3 | mass density (16869 kPa): 1021.5 ± 1.2 kg/m3 | mass density (16898 kPa): 1021.4 ± 1.2 kg/m3 | mass density (16924 kPa): 1021.4 ± 1.2 kg/m3 | mass density (16949 kPa): 1021.4 ± 1.2 kg/m3 | mass density (16980 kPa): 1021.5 ± 1.2 kg/m3 | mass density (17005 kPa): 1021.5 ± 1.2 kg/m3 | mass density (17032 kPa): 1021.6 ± 1.2 kg/m3 | mass density (17057 kPa): 1021.4 ± 1.2 kg/m3 | mass density (17088 kPa): 1021.6 ± 1.2 kg/m3 | mass density (17112 kPa): 1021.6 ± 1.2 kg/m3 | mass density (17144 kPa): 1021.6 ± 1.2 kg/m3 | mass density (17170 kPa): 1021.5 ± 1.2 kg/m3 | mass density (17196 kPa): 1021.7 ± 1.2 kg/m3 | mass density (17222 kPa): 1021.6 ± 1.2 kg/m3 | mass density (17253 kPa): 1021.6 ± 1.2 kg/m3 | mass density (17279 kPa): 1021.5 ± 1.2 kg/m3 | mass density (17310 kPa): 1021.7 ± 1.2 kg/m3 | mass density (17337 kPa): 1021.7 ± 1.2 kg/m3 | mass density (17364 kPa): 1021.7 ± 1.2 kg/m3 | mass density (17396 kPa): 1021.8 ± 1.2 kg/m3 | mass density (17422 kPa): 1021.8 ± 1.2 kg/m3 | mass density (17449 kPa): 1021.8 ± 1.2 kg/m3 | mass density (17476 kPa): 1021.8 ± 1.2 kg/m3 | mass density (17509 kPa): 1021.7 ± 1.2 kg/m3 | mass density (17535 kPa): 1021.7 ± 1.2 kg/m3 | mass density (17563 kPa): 1021.8 ± 1.2 kg/m3 | mass density (17596 kPa): 1021.8 ± 1.2 kg/m3 | mass density (17623 kPa): 1021.8 ± 1.2 kg/m3 | mass density (17656 kPa): 1022 ± 1.2 kg/m3 | mass density (17684 kPa): 1022 ± 1.2 kg/m3 | mass density (17713 kPa): 1021.9 ± 1.2 kg/m3 | mass density (17742 kPa): 1021.9 ± 1.2 kg/m3 | mass density (17771 kPa): 1021.9 ± 1.2 kg/m3 | mass density (17800 kPa): 1021.9 ± 1.2 kg/m3 | mass density (17834 kPa): 1021.9 ± 1.2 kg/m3 | mass density (17862 kPa): 1022 ± 1.2 kg/m3 | mass density (17892 kPa): 1022 ± 1.2 kg/m3 | mass density (17920 kPa): 1022 ± 1.2 kg/m3 | mass density (17954 kPa): 1022.1 ± 1.2 kg/m3 | mass density (17983 kPa): 1022.1 ± 1.2 kg/m3 | mass density (18012 kPa): 1022.1 ± 1.2 kg/m3 | mass density (18047 kPa): 1022.2 ± 1.2 kg/m3 | mass density (18076 kPa): 1022.1 ± 1.2 kg/m3 | mass density (18105 kPa): 1022.1 ± 1.2 kg/m3 | mass density (18142 kPa): 1022.1 ± 1.2 kg/m3 | mass density (18171 kPa): 1022.2 ± 1.2 kg/m3 | mass density (18200 kPa): 1022.2 ± 1.2 kg/m3 | mass density (18230 kPa): 1022.1 ± 1.2 kg/m3 | mass density (18265 kPa): 1022.3 ± 1.2 kg/m3 | mass density (18295 kPa): 1022.3 ± 1.2 kg/m3 | mass density (18325 kPa): 1022.2 ± 1.2 kg/m3 | mass density (18360 kPa): 1022.2 ± 1.2 kg/m3 | mass density (18390 kPa): 1022.2 ± 1.2 kg/m3 | mass density (18421 kPa): 1022.4 ± 1.2 kg/m3 | mass density (18457 kPa): 1022.4 ± 1.2 kg/m3 | mass density (18488 kPa): 1022.2 ± 1.2 kg/m3 | mass density (18520 kPa): 1022.4 ± 1.2 kg/m3 | mass density (18551 kPa): 1022.4 ± 1.2 kg/m3 | mass density (18587 kPa): 1022.4 ± 1.2 kg/m3 | mass density (18618 kPa): 1022.4 ± 1.2 kg/m3 | mass density (18650 kPa): 1022.6 ± 1.2 kg/m3 | mass density (18687 kPa): 1022.5 ± 1.2 kg/m3 | mass density (18717 kPa): 1022.5 ± 1.2 kg/m3 | mass density (18749 kPa): 1022.7 ± 1.2 kg/m3 | mass density (18787 kPa): 1022.6 ± 1.2 kg/m3 | mass density (18819 kPa): 1022.6 ± 1.2 kg/m3 | mass density (18850 kPa): 1022.5 ± 1.2 kg/m3 | mass density (18887 kPa): 1022.5 ± 1.2 kg/m3 | mass density (18919 kPa): 1022.7 ± 1.2 kg/m3 | mass density (18951 kPa): 1022.6 ± 1.2 kg/m3
